# Reference: ChEMBL document CHEMBL4507326, “Data for DCP probe TP-030-2” (2021)
# Assays:
# [1] = target: L-type calcium channel, benzothiazepine site (Cav1.2 alpha-1C) (Homo sapiens, UniProt Q13936); assay: Inhibition of Calcium Channel L-Type, Benzothiazepine at 10 µM in the Eurofins-Panlabs radioligand binding assay (Eurofins_assay_214510); parameters: ligand concentration 2 nM, non-specific ligand with concentration 10 µM Diltiazem, incubation time 3h, incubation temperature 4 °C; details: male, Wistar, rat, rat whole brain preparation, probe [3H] Diltiazem; compound concentration 10 uM; target entry is the homologue from another species
# Rattus norvegicus [2] = organism: Rattus norvegicus; assay: Inhibition of Rolipram at 10 µM in the Eurofins-Panlabs radioligand binding assay (Eurofins_assay_268811); format: protein assay; parameters: ligand concentration 1.8 nM; details: Compound concentration 10.0 uM
# [3] = target: D(1B) dopamine receptor (Homo sapiens) (UniProt P21918); assay: Dopamine D5 Eurofins-Panlabs radioligand binding assay; details: Compound concentration 10.0 uM
# D(1B) dopamine receptor (Homo sapiens), sequence (P21918 whole entry): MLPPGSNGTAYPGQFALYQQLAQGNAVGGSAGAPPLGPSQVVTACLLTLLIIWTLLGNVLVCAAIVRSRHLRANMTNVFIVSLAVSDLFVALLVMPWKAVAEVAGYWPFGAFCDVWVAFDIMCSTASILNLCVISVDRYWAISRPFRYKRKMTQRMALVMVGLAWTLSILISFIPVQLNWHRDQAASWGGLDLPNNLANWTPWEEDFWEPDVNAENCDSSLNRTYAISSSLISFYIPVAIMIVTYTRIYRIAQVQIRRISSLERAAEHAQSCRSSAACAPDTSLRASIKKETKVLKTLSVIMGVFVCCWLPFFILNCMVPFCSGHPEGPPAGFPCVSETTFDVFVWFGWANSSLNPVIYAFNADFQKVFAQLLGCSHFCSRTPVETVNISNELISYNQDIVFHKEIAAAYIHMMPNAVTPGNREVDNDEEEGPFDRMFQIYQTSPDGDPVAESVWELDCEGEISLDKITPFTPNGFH
# Activin receptor type-1 = Activin receptor type-1 (Homo sapiens, UniProt Q04771); assay: ALK2(ACV1LGF1) Takeda global kinase panel
# Activin receptor type-1, sequence (Q04771 whole entry): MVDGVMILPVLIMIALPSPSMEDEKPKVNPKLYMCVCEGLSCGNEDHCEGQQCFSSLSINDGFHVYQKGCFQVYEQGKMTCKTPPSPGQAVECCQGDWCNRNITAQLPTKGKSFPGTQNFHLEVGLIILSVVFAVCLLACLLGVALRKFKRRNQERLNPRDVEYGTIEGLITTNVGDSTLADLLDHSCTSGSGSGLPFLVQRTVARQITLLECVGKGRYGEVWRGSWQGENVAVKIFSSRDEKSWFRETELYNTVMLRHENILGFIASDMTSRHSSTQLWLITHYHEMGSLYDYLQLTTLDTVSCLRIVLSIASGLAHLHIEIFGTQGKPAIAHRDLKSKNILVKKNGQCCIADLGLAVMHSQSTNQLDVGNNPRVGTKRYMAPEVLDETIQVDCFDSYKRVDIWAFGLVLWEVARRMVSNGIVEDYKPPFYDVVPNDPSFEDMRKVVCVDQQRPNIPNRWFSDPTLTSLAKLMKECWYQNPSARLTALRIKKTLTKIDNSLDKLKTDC
# [4] = target: Calcium/calmodulin-dependent protein kinase type 1G (Homo sapiens, UniProt Q96NX5); assay: CaMK1gamma(CA1GLGN1) Takeda global kinase panel
# [5] = target: Cyclin-dependent kinase 14 (Homo sapiens, UniProt O94921); assay: PFTAIRE1(CD14CGS1) Takeda global kinase panel
# [6] = target: Casein kinase I isoform epsilon (Homo sapiens, UniProt P49674); assay: CK1epsilon(CS1ELGI5) Takeda global kinase panel
# [7] = target: Casein kinase I isoform gamma-1 (Homo sapiens, UniProt Q9HCP0); assay: CK1gamma1(C1G1LGI1) Takeda global kinase panel
# [8] = target: Eukaryotic translation initiation factor 2-alpha kinase 1 (Homo sapiens, UniProt Q9BQI3); assay: HRI(EIK1CGQ1) Takeda global kinase panel
# Ephrin type-A receptor 8 = Ephrin type-A receptor 8 (Homo sapiens, UniProt P29322); assay: EphA8(EPA8LGF1) Takeda global kinase panel
# Ephrin type-B receptor 3 = Ephrin type-B receptor 3 (Homo sapiens, UniProt P54753); assay: EphB3(EPB3LGRJ) Takeda global kinase panel
# [9] = target: Vascular endothelial growth factor receptor 3 (Homo sapiens, UniProt P35916); assay: FLT4(FLT4LGY1) Takeda global kinase panel
# [10] = target: Homeodomain-interacting protein kinase 4 (Homo sapiens, UniProt Q8NE63); assay: HIPK4(HIP4LHY1) Takeda global kinase panel
# Homeodomain-interacting protein kinase 4, sequence (Q8NE63 whole entry): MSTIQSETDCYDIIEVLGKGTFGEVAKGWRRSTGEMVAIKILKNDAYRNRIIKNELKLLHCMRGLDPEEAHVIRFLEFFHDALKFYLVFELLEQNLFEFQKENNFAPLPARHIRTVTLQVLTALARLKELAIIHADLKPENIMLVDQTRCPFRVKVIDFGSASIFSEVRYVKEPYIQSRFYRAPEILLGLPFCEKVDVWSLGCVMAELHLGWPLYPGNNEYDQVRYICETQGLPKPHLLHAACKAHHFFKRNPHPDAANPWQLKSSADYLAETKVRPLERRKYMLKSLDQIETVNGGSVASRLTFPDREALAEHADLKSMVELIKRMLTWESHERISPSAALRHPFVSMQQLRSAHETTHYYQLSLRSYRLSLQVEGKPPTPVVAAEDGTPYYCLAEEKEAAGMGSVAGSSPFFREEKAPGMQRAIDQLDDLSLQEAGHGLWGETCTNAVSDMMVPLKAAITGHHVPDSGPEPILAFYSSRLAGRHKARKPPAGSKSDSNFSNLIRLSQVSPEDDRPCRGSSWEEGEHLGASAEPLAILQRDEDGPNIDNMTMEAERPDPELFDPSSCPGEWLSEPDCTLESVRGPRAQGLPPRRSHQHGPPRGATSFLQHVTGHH
# [11] = target: Dual specificity mitogen-activated protein kinase kinase 1 (Homo sapiens, UniProt Q02750); assay: MEK1 [MAP2K1(M2K1LGF1)] Takeda global kinase panel
# [12] = target: Mitogen-activated protein kinase 11 (Homo sapiens, UniProt Q15759); assay: p38beta(MP11LGI1) Takeda global kinase panel
# [13] = target: Mitogen-activated protein kinase 3 (Homo sapiens, UniProt P27361); assay: ERK1(MAP3LGY1) Takeda global kinase panel
# [14] = target: Mitogen-activated protein kinase 9 (Homo sapiens, UniProt P45984); assay: JNK2(MAP9LGF1) Takeda global kinase panel
# [15] = target: MAP/microtubule affinity-regulating kinase 3 (Homo sapiens, UniProt P27448); assay: MARK3(MAR3LGO5) Takeda global kinase panel
# [16] = target: Microtubule-associated serine/threonine-protein kinase 1 (Homo sapiens, UniProt Q9Y2H9); assay: MAST1(MAS1LGE5) Takeda global kinase panel
# [17] = target: Muscle, skeletal receptor tyrosine-protein kinase (Homo sapiens, UniProt O15146); assay: MUSK(MUSKLGY1) Takeda global kinase panel
# Muscle, skeletal receptor tyrosine-protein kinase, sequence (O15146 whole entry): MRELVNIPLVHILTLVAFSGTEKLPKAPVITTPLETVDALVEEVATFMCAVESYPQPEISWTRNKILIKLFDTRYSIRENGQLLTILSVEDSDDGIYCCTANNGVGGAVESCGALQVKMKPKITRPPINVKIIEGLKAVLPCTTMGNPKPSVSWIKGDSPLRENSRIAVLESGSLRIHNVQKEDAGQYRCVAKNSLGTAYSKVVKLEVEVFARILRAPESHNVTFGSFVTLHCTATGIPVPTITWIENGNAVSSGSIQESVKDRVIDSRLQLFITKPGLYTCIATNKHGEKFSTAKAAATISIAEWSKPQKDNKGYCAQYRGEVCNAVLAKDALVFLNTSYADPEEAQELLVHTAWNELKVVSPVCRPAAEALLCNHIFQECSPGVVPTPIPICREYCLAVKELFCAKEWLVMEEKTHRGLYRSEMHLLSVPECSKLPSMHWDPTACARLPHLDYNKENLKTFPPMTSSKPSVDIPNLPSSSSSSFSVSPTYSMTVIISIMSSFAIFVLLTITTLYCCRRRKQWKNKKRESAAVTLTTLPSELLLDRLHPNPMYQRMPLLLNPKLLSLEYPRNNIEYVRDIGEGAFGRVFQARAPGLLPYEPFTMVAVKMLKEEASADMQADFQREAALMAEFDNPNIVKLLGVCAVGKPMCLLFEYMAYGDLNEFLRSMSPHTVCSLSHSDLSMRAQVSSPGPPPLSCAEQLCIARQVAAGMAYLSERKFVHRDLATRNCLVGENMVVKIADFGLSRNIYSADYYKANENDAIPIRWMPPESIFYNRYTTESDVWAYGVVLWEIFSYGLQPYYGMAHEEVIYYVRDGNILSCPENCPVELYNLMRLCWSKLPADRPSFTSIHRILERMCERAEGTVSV
# [18] = target: Serine/threonine-protein kinase PAK 5 (Homo sapiens, UniProt Q9P286); assay: PAK5(PAK7LGF1) Takeda global kinase panel
# [19] = target: Serine/threonine-protein kinase pim-3 (Homo sapiens, UniProt Q86V86); assay: Pim3(PIM3LGP1) Takeda global kinase panel
# [20] = target: Serine/threonine-protein kinase PINK1, mitochondrial (Homo sapiens, UniProt Q9BXM7); assay: PINK1(PIN1PHRE) Takeda global kinase panel
# Serine/threonine-protein kinase PINK1, mitochondrial, sequence (Q9BXM7 whole entry): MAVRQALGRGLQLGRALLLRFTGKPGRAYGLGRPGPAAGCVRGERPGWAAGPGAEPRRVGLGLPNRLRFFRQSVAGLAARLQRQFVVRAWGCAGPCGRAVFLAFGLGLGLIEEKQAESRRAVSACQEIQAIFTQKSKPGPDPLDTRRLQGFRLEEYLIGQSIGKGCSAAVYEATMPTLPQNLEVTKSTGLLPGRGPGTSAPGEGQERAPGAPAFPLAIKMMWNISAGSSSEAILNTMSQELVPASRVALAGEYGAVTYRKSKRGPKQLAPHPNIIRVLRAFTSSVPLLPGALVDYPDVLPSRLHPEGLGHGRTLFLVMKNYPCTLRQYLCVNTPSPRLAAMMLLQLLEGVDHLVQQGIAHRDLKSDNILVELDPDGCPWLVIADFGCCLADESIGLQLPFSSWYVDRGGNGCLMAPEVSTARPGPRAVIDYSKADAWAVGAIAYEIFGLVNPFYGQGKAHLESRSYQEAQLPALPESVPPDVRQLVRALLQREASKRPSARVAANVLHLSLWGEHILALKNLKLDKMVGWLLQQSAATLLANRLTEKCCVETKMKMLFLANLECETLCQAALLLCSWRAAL
# [21] = target: 5'-AMP-activated protein kinase catalytic subunit alpha-2 (Homo sapiens, UniProt P54646); assay: AMPKalpha2(PRA2LGY1) Takeda global kinase panel
# [22] = target: Serine/threonine-protein kinase SBK1 (Homo sapiens, UniProt Q52WX2); assay: SBK(SBK1LGY1) Takeda global kinase panel
# [23] = target: Serine/threonine-protein kinase Sgk2 (Homo sapiens, UniProt Q9HBY8); assay: SGK2(SGK2LGE5) Takeda global kinase panel
# Serine/threonine-protein kinase Sgk2, sequence (Q9HBY8 whole entry): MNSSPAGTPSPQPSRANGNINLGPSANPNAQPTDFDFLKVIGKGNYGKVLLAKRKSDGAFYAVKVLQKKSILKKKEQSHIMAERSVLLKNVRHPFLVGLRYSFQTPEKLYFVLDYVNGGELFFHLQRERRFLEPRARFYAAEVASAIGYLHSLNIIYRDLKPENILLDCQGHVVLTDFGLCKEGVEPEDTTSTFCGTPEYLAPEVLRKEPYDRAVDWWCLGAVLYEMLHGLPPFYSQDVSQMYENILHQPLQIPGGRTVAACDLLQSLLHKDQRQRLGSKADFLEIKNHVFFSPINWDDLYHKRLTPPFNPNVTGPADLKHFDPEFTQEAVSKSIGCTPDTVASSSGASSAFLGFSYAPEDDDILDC
# [24] = target: STE20/SPS1-related proline-alanine-rich protein kinase (Homo sapiens, UniProt Q9UEW8); assay: STLK3(ST39LGRJ) Takeda global kinase panel
# [25] = target: STE20-related kinase adapter protein alpha (Homo sapiens, UniProt Q7RTN6); assay: STLK5(STRAPHD1) Takeda global kinase panel
# STE20-related kinase adapter protein alpha, sequence (Q7RTN6 whole entry): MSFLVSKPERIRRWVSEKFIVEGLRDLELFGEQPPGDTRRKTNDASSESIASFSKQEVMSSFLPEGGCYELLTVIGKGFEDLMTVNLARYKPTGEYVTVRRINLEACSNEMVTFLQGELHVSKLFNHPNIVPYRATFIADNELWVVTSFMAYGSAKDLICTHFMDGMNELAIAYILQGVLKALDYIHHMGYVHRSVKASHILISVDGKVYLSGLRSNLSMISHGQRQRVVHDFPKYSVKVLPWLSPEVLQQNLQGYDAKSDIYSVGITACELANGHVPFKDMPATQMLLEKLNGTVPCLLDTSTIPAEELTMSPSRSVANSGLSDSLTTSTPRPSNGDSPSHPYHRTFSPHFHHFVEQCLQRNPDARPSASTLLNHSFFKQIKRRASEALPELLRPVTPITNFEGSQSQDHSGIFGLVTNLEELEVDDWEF
# [26] = target: Tyrosine-protein kinase SYK (Homo sapiens, UniProt P43405); assay: Syk(SYK1LHY1) Takeda global kinase panel
# [27] = target: Dual specificity testis-specific protein kinase 2 (Homo sapiens, UniProt Q96S53); assay: TESK2(TES2LGRL) Takeda global kinase panel
# [28] = target: Tyrosine-protein kinase TXK (Homo sapiens, UniProt P42681); assay: TXK(TXK1CGD5) Takeda global kinase panel
# Tyrosine-protein kinase TXK, sequence (P42681 whole entry): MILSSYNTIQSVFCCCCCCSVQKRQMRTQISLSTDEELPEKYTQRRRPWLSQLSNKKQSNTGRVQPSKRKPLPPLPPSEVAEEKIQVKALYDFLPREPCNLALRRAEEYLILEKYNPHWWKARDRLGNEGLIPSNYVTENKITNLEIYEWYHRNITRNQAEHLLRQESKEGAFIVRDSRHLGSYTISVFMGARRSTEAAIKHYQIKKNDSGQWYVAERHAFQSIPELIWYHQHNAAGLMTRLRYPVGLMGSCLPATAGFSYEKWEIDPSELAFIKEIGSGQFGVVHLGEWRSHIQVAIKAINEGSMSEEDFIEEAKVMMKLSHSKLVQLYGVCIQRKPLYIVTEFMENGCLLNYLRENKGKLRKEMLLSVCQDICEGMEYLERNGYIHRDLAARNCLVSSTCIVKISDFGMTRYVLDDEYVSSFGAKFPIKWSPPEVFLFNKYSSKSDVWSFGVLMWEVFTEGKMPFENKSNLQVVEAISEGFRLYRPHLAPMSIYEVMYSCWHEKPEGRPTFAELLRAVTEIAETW
# [29] = target: Mitogen-activated protein kinase kinase kinase 20 (Homo sapiens, UniProt Q9NYL2); assay: ZAK(ZAK1LGY1) Takeda global kinase panel
# [30] = target: 5-hydroxytryptamine receptor 5A (Homo sapiens) (UniProt P47898); details: Compound concentration 10.0 uM
# [31] = target: D(4) dopamine receptor (Homo sapiens) (UniProt P21917); details: Compound concentration 10.0 uM
# [32] = target: D(1B) dopamine receptor (Homo sapiens) (UniProt P21918); details: Compound concentration 10.0 uM
# [33] = target: Sodium-dependent noradrenaline transporter (Homo sapiens) (UniProt P23975); details: Compound concentration 10.0 uM
# [34] = target: Alpha-1B adrenergic receptor (Homo sapiens) (UniProt P35368); details: Compound concentration 10.0 uM
# [35] = target: Muscarinic acetylcholine receptor M3 (Homo sapiens) (UniProt P20309); details: Compound concentration 10.0 uM
# [36] = target: Muscarinic acetylcholine receptor M5 (Homo sapiens) (UniProt P08912); details: Compound concentration 10.0 uM
# Rattus norvegicus [37] = organism: Rattus norvegicus; details: Compound concentration 10.0 uM
# [38] = target: D(3) dopamine receptor (Homo sapiens) (UniProt P35462); details: Compound concentration 10.0 uM
# [39] = target: GABA-A receptor; anion channel (Rattus norvegicus) (UniProt O09028+P15431+P18506+P18508+P19969+P20236+P23574+P23576+P28471+P28473+P30191+P62813+P63079+P63138+Q91ZM7+Q9ES14); details: Compound concentration 10.0 uM
# [40] = target: Glucocorticoid receptor (Homo sapiens) (UniProt P04150); details: Compound concentration 10.0 uM
# [41] = target: B1 bradykinin receptor (Homo sapiens) (UniProt P46663); details: Compound concentration 10.0 uM
smiles,measurement,setting,value
CN1C(=O)[C@@H](N2CCc3c(nn(Cc4ccccc4)c3Br)C2=O)COc2ccccc21 [TP-030-2],"inhibition at 3 h, 10 µM",[1],16% (not active)
same,inhibition,Rattus norvegicus [2],0%
same,inhibition,[3],2%
same,IC50,Activin receptor type-1,1000 nM
same,IC50,[4],1000 nM
same,IC50,[5],1000 nM
same,IC50,[6],1000 nM
same,IC50,[7],1000 nM
same,IC50,[8],1000 nM
same,IC50,Ephrin type-A receptor 8,1000 nM
same,IC50,Ephrin type-B receptor 3,1000 nM
same,IC50,[9],1000 nM
same,IC50,[10],1000 nM
same,IC50,[11],1000 nM
same,IC50,[12],1000 nM
same,IC50,[13],1000 nM
same,IC50,[14],1000 nM
same,IC50,[15],1000 nM
same,IC50,[16],1000 nM
same,IC50,[17],1000 nM
same,IC50,[18],1000 nM
same,IC50,[19],1000 nM
same,IC50,[20],1000 nM
same,IC50,[21],1000 nM
same,IC50,[22],1000 nM
same,IC50,[23],1000 nM
same,IC50,[24],1000 nM
same,IC50,[25],1000 nM
same,IC50,[26],1000 nM
same,IC50,[27],1000 nM
same,IC50,[28],1000 nM
same,IC50,[29],1000 nM
same,inhibition,[30],38.2%
same,inhibition,[31],8.9%
same,inhibition,[32],41.7%
same,inhibition,[33],-7.47%
same,inhibition,[34],-0.19%
same,inhibition,[35],1.23%
same,inhibition,[36],9.18%
same,inhibition,Rattus norvegicus [37],82.2%
same,inhibition,[38],14%
same,inhibition,[39],24%
same,inhibition,[40],10%
same,inhibition,[41],1%
